Experimental findings from ChEMBL document CHEMBL1201862, “PubChem BioAssay data set” (2004) are described below.

Structures are written as SMILES.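 All cell lines were grown in 96-well plates and treated with compound for 48 hours. Abbreviation: GI50, concentration required for 50% inhibition of growth.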 Calls of active or inactive are those of the source. Rule as the data show it: active = GI50 up to about 1.1 µM and inactive = higher. Where a SMILES comes first, the peptide text is derived from it. The star is where a group is joined. Cbz = O=C(OCc1ccccc1)*

Test systems include T47D; BT-549; Hs-578T; KM-20L2; HOP-18; LXFL 529.
Common to all, as to experiment: growth of human tumour cells (NCI), 48 h

For `CC(=O)O[C@@H]1C2=C(C)C=C(O2)[C@H]2O[C@]2(C)C[C@H]2C=C(C(=O)O2)[C@H](OC(C)=O)CC1[C@@]1(C)CO1` (stereo not given in full), the GI50 with T47D is 18.8 µM (inactive); in the assay with BT-549, 21.1 µM (inactive).
`CC(C)(C)NC(=O)/C(=C\Sc1ccccc1)c1ccccc1`: the GI50 in the assay on Hs-578T was 72.1 µM (inactive); with T47D, 56.1 µM (inactive); with BT-549 it was > 30.3 µM (inactive).
For `O=c1cc(-c2ccc(O)cc2)oc2cc(O[C@@H]3O[C@H](CO)[C@@H](O)[C@H](O)[C@H]3O)cc(O)c12` [APIGETRIN], the GI50 was 40 µM (inactive) with Hs-578T, 81.7 µM (inactive) in the assay on T47D and 24.4 µM (inactive) in the assay on BT-549.
`CNc1ncnc2c1cnn2Cc1cn(COCC(O)CO)nn1` (stereo not given): the GI50 in the assay with Hs-578T was 0.149 µM (active); with T47D, > 100 µM (inactive); in the assay on BT-549, > 100 µM (inactive).
Regarding `CN(O)C(=O)CCC(NC(=O)CCC(N)C(=O)O)C(=O)NCC(=O)O` (stereo not given), the GI50 in the assay with Hs-578T, in the assay on T47D and in the assay with BT-549 was > 100 µM (inactive) throughout.
`CCCCn1cnc2c(SC)ncnc21`: the GI50 in the assay with Hs-578T, in the assay on T47D and in the assay with BT-549 was > 100 µM (inactive) in each case.
Take `CCOC(=O)C(NC(=O)CC)(N1CCN(c2cc3c(cc2F)c(=O)c(C(=O)O)cn3C2CC2)CC1)C(F)(F)F` (stereo not given): the GI50 in the assay on Hs-578T, with T47D and in the assay with BT-549 was > 100 µM (inactive) in each case.
With `CN(C)CCCc1cccc2[nH]c3c(c12)CN(C)CC3`, the GI50 was > 100 µM (inactive) in the assay with Hs-578T, > 100 µM (inactive) in the assay with T47D and 81.7 µM (inactive) in the assay on BT-549.
For `CC(=O)Oc1ccc(/C=C/C(=O)NCC(NC(=O)/C=C/c2ccc(OC(C)=O)c(OC(C)=O)c2)C(=O)O)cc1OC(C)=O` (stereo not given), the GI50 with Hs-578T and in the assay with BT-549 was > 100 µM (inactive) in each case.
Consider `Cc1cc2c([N+](=O)[O-])cc3c(c2o1)C(=O)C=CC3=O`, for which the GI50 in the assay on Hs-578T was 18.5 µM (inactive); in the assay on T47D it was 3.12 µM (inactive); with BT-549, 16.6 µM (inactive).
In the case of `COC(OC)[C@@H]1OC[C@H](n2cnc3c(N)ncnc32)[C@H]1O`, the GI50 in the assay on Hs-578T, in the assay with T47D and in the assay on BT-549 was > 100 µM (inactive) in each case.
Consider `O=[N+]([O-])/C(C(Cl)=C(Cl)Cl)=C(\Nc1ccccc1)n1nnc2ccccc21`, for which the GI50 in the assay on Hs-578T is 20.6 µM (inactive); in the assay with T47D it was > 100 µM (inactive); in the assay on BT-549, 27 µM (inactive).
For the compound `O=C1/C(=C2\Sc3c(ccc(Cl)c3Cl)C2=O)Sc2c1ccc(Cl)c2Cl`, the GI50 with Hs-578T, with T47D and with BT-549 was > 100 µM (inactive) throughout.
`Cc1ccc(S(=O)(=O)NNC(=S)Nc2cccc3ccccc23)cc1`: the values for the GI50 in the assay on Hs-578T and in the assay with T47D were 97.5 µM (inactive) and 39.5 µM (inactive), respectively.
On to `CCOC(=O)COc1ccc2c(C)cc(=O)oc2c1`, for which the GI50 in the assay with Hs-578T, in the assay on T47D and in the assay on BT-549 was > 100 µM (inactive) throughout.
`COC(=O)C1C(O)C(C)C(O)C(C)(O)C=C(C)C2=C3C(=C(C)C(=O)c4c(O)c(c(C)c(OC(C)=O)c43)NC(=O)C(C)=C/C=C\C(C)(O)C(O)C(C)C1O)OCO2` (stereo not given): the GI50 with Hs-578T is > 100 µM (inactive); in the assay with T47D it was 67.9 µM (inactive); in the assay with BT-549, > 100 µM (inactive).
For the compound `CC(C)(C)OC(=O)C1=C(N)N(Cc2ccccc2)C2(C)C=CC(=O)C=C12` (stereo not given), the GI50 with Hs-578T was 14.5 µM (inactive); with T47D it was 3.1 µM (inactive); in the assay with BT-549, 1.95 µM (inactive).
As to `Cc1cccc(NC(=O)CSc2nnc(Cc3ccccc3)o2)c1`, the GI50 in the assay with KM-20L2, with HOP-18 and in the assay with LXFL 529 was > 100 µM (inactive) throughout.
Regarding `CCc1nc(N)nc(N)c1-c1ccc(NCCc2ccccc2)c([N+](=O)[O-])c1`, the GI50 in the assay with Hs-578T is 9.66 µM (inactive); with T47D, 4.51 µM (inactive); in the assay with BT-549, 4.62 µM (inactive).
With `COC(=O)c1cc(CC2Cc3cc4c(cc3C2=O)CCC4)cc2c1CCC2` (stereo not given), the GI50 in the assay on Hs-578T is 24.8 µM (inactive); in the assay with T47D, > 100 µM (inactive); in the assay on BT-549, 60 µM (inactive).
Take `Clc1ccccc1-c1nn2c(CCCCCCCCc3nnc4sc(-c5ccccc5Cl)nn34)nnc2s1`: the GI50 in the assay on Hs-578T, in the assay on T47D and in the assay on BT-549 was > 100 µM (inactive) throughout.
`COC(=O)c1cc(C#N)[nH]c1-c1ccc(Br)s1`: the GI50 with Hs-578T is 5.74 µM (inactive); with T47D it was 1.17 µM (inactive); with BT-549, 10.9 µM (inactive).
Consider `O=C1C2CC(Cl)C(SSC3CC4C(=O)N(SC(Cl)(Cl)C(Cl)Cl)C(=O)C4CC3Cl)CC2C(=O)N1SC(Cl)(Cl)C(Cl)Cl` (stereo not given), for which the GI50 with Hs-578T was 2.37 µM (inactive); in the assay on T47D, 2.25 µM (inactive); with BT-549 it was 1.7 µM (inactive).
With `O=C1/C(=C/c2ccc(O)cc2)CCc2ccccc21`, the GI50 is 23 µM (inactive) with Hs-578T, 50.6 µM (inactive) with T47D and 20 µM (inactive) in the assay on BT-549.
For the compound `CCOc1cc(NC(C)=O)ccc1C(=O)NN1C(=O)CSC1c1ccc(O)c(OC)c1` (stereo not given), the results for the GI50 in the assay with Hs-578T, with T47D and in the assay on BT-549 were 82.4 µM (inactive), 32.4 µM (inactive) and 28 µM (inactive), respectively.
For the compound `O=C1C(Cl)C2(CC(/C=C/c3ccccc3Cl)=NN2c2cccc(S(=O)(=O)O)c2)N1c1nc2ccccc2s1` (stereo not given), the GI50 was 81.8 µM (inactive) in the assay on Hs-578T, 11.3 µM (inactive) with T47D and > 100 µM (inactive) with BT-549.
For `CCOc1c(OC)cc(-c2nc3n(n2)C(=O)C(CC)S3)cc1OC` (stereo not given), the GI50 with Hs-578T, in the assay on T47D and in the assay on BT-549 was > 10 µM (inactive) in each case.
Regarding `N=c1oc2ccccc2cc1C(=O)Nc1cccc2ccccc12`, the GI50 with Hs-578T, in the assay on T47D and in the assay on BT-549 was > 100 µM (inactive) each time.
As for `Clc1nc2c(C#Cc3ccccc3)ncnc2n1C1CCCCO1` (stereo not given), the GI50 in the assay with Hs-578T was 24.7 µM (inactive); in the assay with T47D, 19.1 µM (inactive); in the assay with BT-549, 14.8 µM (inactive).
`N=C(N)NS(=O)(=O)c1ccc(NC(=O)c2c3ccccc3nc3ccccc23)cc1`: the GI50 with BT-549 is > 100 µM (inactive).
Take `CCCC[C@@H]1CCN2C[C@@H](O)[C@@H](O)[C@H]2[C@@H]1O`: the GI50 in the assay on Hs-578T and in the assay with BT-549 was > 100 µM (inactive) in each case.
Consider `Clc1ccc(/C=N/c2ccc3c(c2)Cc2ccccc2-3)c(Cl)c1`, for which the GI50 in the assay on Hs-578T, in the assay on T47D and with BT-549 was > 100 µM (inactive) each time.
For the compound `CC(C)(CO)CNc1cc(Cl)nc(N)n1`, the GI50 is > 100 µM (inactive) with Hs-578T, 43.2 µM (inactive) in the assay with T47D and > 100 µM (inactive) in the assay with BT-549.
Take `COc1cc(/C=C/C(=O)C2(C(=O)/C=C/c3cc(OC)c(OC)c(OC)c3)CCCCC2)cc(OC)c1OC`: the results for the GI50 in the assay on Hs-578T, with T47D and with BT-549 were 29.6 µM (inactive), 76.2 µM (inactive) and 29.6 µM (inactive), respectively.
Consider `CN(C)/N=C1\C=C2CC[C@H](O[Si](C)(C)C(C)(C)C)[C@@]2(C)CC1`, for which the GI50 is 18.1 µM (inactive) in the assay on Hs-578T and 12.2 µM (inactive) in the assay with T47D.
As to `CCSC1=CC2(O)N(CCc3ccc(OC)c(OC)c3)C(=O)CC2(C(=O)OC)CC1=O` (stereo not given), the GI50 in the assay on T47D is 21 µM (inactive); in the assay on BT-549 it was 18.4 µM (inactive).
Turning to `Cc1ccccc1/N=N/c1ccc(/N=N/c2c(O)ccc3cc(S(=O)(=O)O)cc(S(=O)(=O)O)c23)c(C)c1`, the GI50 with Hs-578T and in the assay with BT-549 was > 100 µM (inactive) in each case.
In the case of `Brc1ccc(-c2[nH]c3ccccc3c2/N=N\c2ccccc2)cc1`, the GI50 was 20.7 µM (inactive) in the assay on Hs-578T, 16.7 µM (inactive) in the assay on T47D and 22 µM (inactive) in the assay with BT-549.
Regarding `COc1cc2c(/C=C3/C(=O)Nc4ccccc43)c(Cl)n(Cc3ccc(Cl)cc3)c2cc1C`, the results for the GI50 in the assay with Hs-578T, in the assay on T47D and in the assay on BT-549 were 0.401 µM (active), 0.52 µM (active) and 0.382 µM (active), respectively.
In the case of `Cc1nc2ccc(S(=O)(=O)Nc3ccccc3)cc2c(=O)n1NC(=O)CNc1ccccc1`, the GI50 in the assay with Hs-578T and in the assay with BT-549 was > 100 µM (inactive) each time.
`CC(C)(C)OC(=O)NC(Cc1ccc(OC(C)(C)C)cc1)C(=O)N[C@H]1CCC[C@H]1C(=O)NC(Cc1ccccc1)C(=O)N1CCCC1C(N)=O` (stereo not given in full): the GI50 in the assay with Hs-578T and in the assay with T47D was > 100 µM (inactive) each time.
Take `CC1CC[C@@]2(OC1)OC1C[C@H]3[C@@H]4CC[C@H]5CC(OC6OC(CO)C(O)C(OC7OC(CO)C(OC8OC(CO)C(O)C(OC9OC(CO)C(O)C(O)C9O)C8OC8OC(CO)C(O)C(O)C8O)C(O)C7O)C6O)[C@H](O)CC5(C)[C@H]4CCC3(C)C1[C@@H]2C` (stereo not given in full): the GI50 in the assay with Hs-578T is 1.84 µM (inactive); in the assay on T47D, 1.37 µM (inactive); in the assay on BT-549 it was 4.37 µM (inactive).
As for `O=[N+]([O-])C(=C1c2ccccc2-c2ccccc21)[N+](=O)[O-]`, the results for the GI50 with KM-20L2 and in the assay with LXFL 529 were 57.3 µM (inactive) and 41.3 µM (inactive), respectively.
On to `COc1ccc2[nH]c3c(c2c1)CCc1ccccc1-3`, for which the GI50 was 17.4 µM (inactive) in the assay on Hs-578T, > 100 µM (inactive) in the assay with T47D and > 100 µM (inactive) in the assay on BT-549.
Take `c1ccc2c(c1)CCc1c-2n(CCN2CCOCC2)c2ccccc12`: the figures for the GI50 in the assay on Hs-578T, in the assay on T47D and in the assay with BT-549 were 12.8 µM (inactive), > 100 µM (inactive) and > 100 µM (inactive), respectively.
As to `c1ccc2c[n+](Cc3ccnc4ccccc34)ccc2c1`, the GI50 in the assay with Hs-578T, with T47D and with BT-549 was > 100 µM (inactive) each time.
`COC(=O)C(CC(C)C)NC(=O)C(CCCNC(=N)N)NC(=O)OCc1ccccc1` (stereo not drawn) (Cbz-Arg-Leu-OMe; configuration not given here): the GI50 in the assay on Hs-578T, in the assay on T47D and in the assay on BT-549 was > 100 µM (inactive) each time.
On to `O=C(Nc1cccc(C(F)(F)F)c1)c1cc(Br)cc(Br)c1O` [FLUOROSALAN], for which the GI50 was 3.4 µM (inactive) in the assay on Hs-578T and 3.24 µM (inactive) in the assay with T47D.
Take `C1=N\CCN2CCN(CC/N=C\c3ccccc3OCc3cccc(n3)COc3ccccc3/1)CC2`: the GI50 in the assay with Hs-578T is 1.38 µM (inactive); with BT-549, 9.75 µM (inactive).
With `O=C1CCCCC/C1=C\c1ccc([N+](=O)[O-])cc1`, the GI50 with T47D was 31.5 µM (inactive); in the assay with BT-549, 23 µM (inactive).
